The text below walks through data of patent US4053615A, “Phthalimidopiperidines and anti-convulsant compositions thereof” (John Wyeth & Brother Limited, priority 1972, dated 1977).

Test [1] in a line: Anti-inflammatory activity. Format: in vivo. Particulars: when tested on warm blooded animals.
For test [2], the system named is clonic and tonic convulsions induced by pentylenetetrazole. Description: Procedure A: anti-pentylenetetrazole activity. Particulars: mice, p.o.; for ED50: Mus musculus, po, 1 h, challenge one hour later with pentylenetetrazole 125 mg/kg i.p., read-out: ED50 (against convulsions), Procedure A. Set-up: key to Activity class, Procedure A: INACTIVE: A compound is regarded as inactive in either one of the two procedures if the ED50 of the compound in the test procedure is greater than 400 mg/kg. Format: in vivo. The protocol:
ANTI-PENTYLENETETRAZOLE ACTIVITY
Compounds at a number of dose levels are administered p.o. to groups of six mice (3 males and 3 females). One hour later the animals are challenged with pentylenetetrazole (125mg/kg i.p.). The incidence of clonic and tonic convulsions and deaths is observed for one-half hour. Protection against convulsions and death is determined by comparison with controls run simultaneously. An ED50 against convulsions is calculated from probit-log dose curves.

Test [3] concerns tonic extensor seizures (maximal electroshock). Description: Procedure B: maximal electroshock seizures (MES). Format: in vivo. More on the design: key to Activity class, Procedure B: INACTIVE: A compound is regarded as inactive in either one of the two procedures if the ED50 of the compound in the test procedure is greater than 400 mg/kg. Particulars: mice, orally; for ED50: Mus musculus, po, 1 h, supramaximal electroshock one hour later (25 mA, 0.2 sec), read-out: ED50 (against convulsions), Procedure B. The protocol:
MAXIMAL ELECTROSHOCK SEIZURES (MES)
Compounds at graded dose levels are administered orally to groups of six mice. One hour later, the animals are given a supramaximal electroshock through pinna electrodes (25 mA, 0.2 sec). Presence or absence of tonic extensor seizures as well as the number of deaths are recorded.
The percent protection against seizures is calculated. An ED50 against convulsions is calculated from probit-log dose curves.

The next test is described as follows: Anti-arrhythmic activity. Particulars: when tested on warm blooded animals. Format: in vivo.
Test [4] relates to blood platelet aggregation. Description: Inhibition of blood platelet aggregation.

For the compound `O=C1c2ccccc2C(=O)N1C1CCN(Cc2ccccc2)CC1` [Example 1, 1-Benzyl-4-phthalimido-piperidine], the anti-inflammatory activity result in test [1] is given as “Anti-inflammatory activity is shown”.
For `CCCCN1CCC(N2C(=O)c3ccc([N+](=O)[O-])cc3C2=O)CC1` [Example 12, 1-n-Butyl-4-(4-nitrophthalimido)piperidine], the ED50 in test [2] lay in the range of 6 to 15 mg/kg.
Consider `CCN1CCCC(N2C(=O)c3ccc(N)cc3C2=O)C1` (stereo not shown) [Example 6, 3-(4-Aminophthalimido)-1-ethylpiperidine], for which, in test [2], the 50% effective dose (ED50) was 6 to 15 mg/kg.
Still for that read-out and setting: the figure for `CCCCN1CCC(N2C(=O)c3ccc(N)cc3C2=O)CC1` [Example 13, 4-(4-Aminophthalimido)-1-n-butylpiperidine] is 6 to 15 mg/kg.
In the case of `CCN1CCC(N2C(=O)c3ccccc3C2=O)C1` (stereo not shown) [1-ethyl-3-phthalimido-pyrrolidine, 1-ethyl-3-phthalimidopyrrolidine, reference compound], the ED50 in test [3] and in test [2] was over 400 mg/kg each time. The “Activity class, Procedure B” value in test [3] (maximal electroshock) was “INACTIVE”. Moreover, the “Activity class, Procedure A” value in test [2] (pentylenetetrazole challenge) is listed as “INACTIVE”.
Consider `CCN1CCCC(N2C(=O)c3ccc([N+](=O)[O-])cc3C2=O)C1` (stereo not shown) [Example 4, 1-Ethyl-3-(4-nitrophthalimido)piperidine], for which the ED50 in test [2] fell in the range of 6 to 15 mg/kg. Besides, the anti-arrhythmic activity entry in “Anti-arrhythmic activity” is reported as “anti-arrhythmic activity is shown”.
`O=C1c2ccc([N+](=O)[O-])cc2C(=O)N1C1CCN(Cc2ccccc2)CC1` [Example 15, 1-Benzyl-4-(4-nitrophthalimido)piperidine]: in test [2], the median effective dose (ED50) fell in the range of 6 to 15 mg/kg.
Regarding `O=C1c2ccccc2C(=O)N1C1CCNCC1` [Example 2, 4-Phthalimido-piperidine], the “inhibition of blood platelet aggregation” value in test [4] was “active as an inhibitor of blood platelet aggregation”.
As to `Nc1ccc2c(c1)C(=O)N(C1CCN(Cc3ccccc3)CC1)C2=O` [Example 16, 4-(4-Aminophthalimido)-1-benzylpiperidine], the ED50 in test [2] was in the range of 6 to 15 mg/kg.
For `CCN1CCCC(N2C(=O)c3ccccc3C2=O)C1` (stereo not shown) [Example 3, 1-Ethyl-3-phthalimido-piperidine], the results for the ED50 in test [3] and in test [2] were 31 to 50 mg/kg and 51 to 100 mg/kg, respectively. The anti-arrhythmic activity entry in “Anti-arrhythmic activity” is “anti-arrhythmic activity is shown”.
